Results from PubChem BioAssay (NCI).
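Five compound concentrations were applied to cells in 96-well plates for 48 hours; endpoints were derived by simple linear interpolation of the resulting dose-response curve. Abbreviation: GI50, concentration required for 50% inhibition of growth. The concentration for full growth arrest is given as TGI.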

How the values were obtained:
Test in all cases: NCI tumour cell line growth inhibition, 48 h
[1] = tested on: 786-0 renal
[2] = tested on: A498 renal
[3] = tested on: ACHN renal
[4] = tested on: BT-549 breast
[5] = tested on: CAKI-1 renal
[6] = tested on: CCRF-CEM leukemia
[7] = tested on: COLO 205 colon
[8] = tested on: DU-145 prostate
[9] = tested on: EKVX NSCLC
[10] = tested on: HCC-2998 colon
[11] = tested on: HCT-116 colon
[12] = tested on: HCT-15 colon
[13] = tested on: HL-60(TB) leukemia
[14] = tested on: HOP-62 NSCLC
[15] = tested on: HOP-92 NSCLC
[16] = tested on: HS 578T breast
[17] = tested on: HT29 colon
[18] = tested on: IGROV1 ovarian
[19] = tested on: K-562 leukemia
[20] = tested on: KM12 colon
[21] = tested on: LOX IMVI melanoma
[22] = tested on: M14 melanoma
[23] = tested on: MALME-3M melanoma
[24] = tested on: MCF7 breast
[25] = tested on: MDA-MB-231 breast
[26] = tested on: MDA-MB-435
[27] = tested on: MOLT-4 leukemia
[28] = tested on: NCI-H23 lung
[29] = tested on: NCI-H460 lung
[30] = tested on: NCI-H522 lung
[31] = tested on: NCI/ADR-RES ovarian
[32] = tested on: OVCAR-3 ovarian
[33] = tested on: OVCAR-4 ovarian
[34] = tested on: OVCAR-5 ovarian
[35] = tested on: OVCAR-8 ovarian
[36] = tested on: PC-3 prostate
[37] = tested on: RPMI-8226 leukemia
[38] = tested on: SF-268 CNS
[39] = tested on: SF-295 CNS
[40] = tested on: SF-539 CNS
[41] = tested on: SK-MEL-2 melanoma
[42] = tested on: SK-MEL-28 melanoma
[43] = tested on: SK-OV-3 ovarian
[44] = tested on: SN12C renal
[45] = tested on: SNB-19 CNS
[46] = tested on: SNB-75 CNS
[47] = tested on: SR leukemia
[48] = tested on: SW-620 colon
[49] = tested on: T-47D breast
[50] = tested on: TK-10 renal
[51] = tested on: UACC-257 melanoma
[52] = tested on: UACC-62 melanoma
[53] = tested on: UO-31 renal

COc1cc2c(cc1OCCCN1CCN(CCCOc3cc4c(cc3OC)C(=O)N3C[C@H](F)C[C@H]3C=N4)CC1)N=C[C@@H]1C[C@@H](F)CN1C2=O
GI50 [1]: 26.3 nM
TGI [1]: 763 nM
GI50 [2]: 94.7 nM
TGI [2]: 380 nM
GI50 [3]: 102 nM
TGI [3]: 945 nM
GI50 [4]: 113 nM
TGI [4]: 464 nM
GI50 [5]: 68.3 nM
TGI [5]: 2000 nM
GI50 [6]: < 10 nM
TGI [6]: 1490 nM
GI50 [7]: 37.3 nM
TGI [7]: 193 nM
GI50 [8]: 83 nM
TGI [8]: 6.16 µM
GI50 [9]: 273 nM
TGI [9]: 16.3 µM
GI50 [10]: 121 nM
TGI [10]: 357 nM
GI50 [11]: 34 nM
TGI [11]: 252 nM
GI50 [12]: 2150 nM
TGI [12]: 12.9 µM
GI50 [13]: < 45 nM
TGI [13]: 797 nM
GI50 [14]: 13 nM
TGI [14]: 41.8 nM
GI50 [15]: 64 nM
TGI [15]: 14.6 µM
GI50 [16]: 84.1 nM
TGI [16]: 2560 nM
GI50 [17]: 148 nM
TGI [17]: > 37.2 µM
GI50 [18]: 69.6 nM
TGI [18]: 1880 nM
GI50 [19]: 26.9 nM
TGI [19]: 3.66 µM
GI50 [20]: 180 nM
GI50 [21]: 17.6 nM
TGI [21]: 145 nM
GI50 [22]: 44.1 nM
TGI [22]: 198 nM
GI50 [23]: 33.4 nM
TGI [23]: 154 nM
GI50 [24]: < 19.5 nM
TGI [24]: > 32.7 µM
GI50 [25]: 116 nM
TGI [25]: 852 nM
GI50 [26]: 105 nM
TGI [26]: 288 nM
GI50 [27]: < 18 nM
TGI [27]: 1680 nM
GI50 [28]: 25.5 nM
TGI [28]: 209 nM
GI50 [29]: < 10 nM
GI50 [30]: < 41 nM
TGI [30]: 1160 nM
GI50 [31]: 9.18 µM
TGI [31]: 47.3 µM
GI50 [32]: 119 nM
TGI [32]: 2910 nM
GI50 [33]: 386 nM
TGI [33]: 22.6 µM
GI50 [34]: 198 nM
TGI [34]: 3.24 µM
GI50 [35]: 134 nM
TGI [35]: 16.2 µM
GI50 [36]: 54.6 nM
GI50 [37]: 22.6 nM
TGI [37]: 1040 nM
GI50 [38]: 24.8 nM
TGI [38]: 5.94 µM
GI50 [39]: 45.7 nM
TGI [39]: > 100 µM
GI50 [40]: 21.6 nM
TGI [40]: 1230 nM
GI50 [41]: 394 nM
TGI [41]: 3.29 µM
GI50 [42]: 71.3 nM
TGI [42]: 343 nM
GI50 [43]: 70 nM
TGI [43]: > 100 µM
GI50 [44]: 13.9 nM
TGI [44]: 12.2 µM
GI50 [45]: 758 nM
TGI [45]: > 41.6 µM
GI50 [46]: 33.8 nM
TGI [46]: 594 nM
GI50 [47]: < 21 nM
TGI [47]: 521 nM
GI50 [48]: 74.6 nM
TGI [48]: 10.4 µM
GI50 [49]: 84.7 nM
TGI [49]: > 26.5 µM
GI50 [50]: 309 nM
TGI [50]: 3.28 µM
GI50 [51]: 127 nM
TGI [51]: 363 nM
GI50 [52]: 22.3 nM
TGI [52]: 145 nM
GI50 [53]: 823 nM
TGI [53]: 2650 nM
